Experimental data from US6358885B1, “Substituted phenylheterocyclic herbicides” (Mississippi State University, priority 1992, dated 2002).

Legend:
Assay in all cases: Test B preemergence/postemergence greenhouse plant response rating 0 to 10
bedstraw = assay type: in vivo, Galium aparine; settings: for Plant response rating, Bedstraw: 0 to 10 scale
In short: (§1)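 Planted seeds are treated preemergence with compound dissolved in a non-phytotoxic solvent, while postemergence applications go onto plants of two to eighteen cm. Plants stay in the greenhouse twelve to sixteen days and are then rated visually relative to controls.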

cotton = assay type: in vivo, Gossypium hirsutum; settings: for Plant response rating, Cotton: 0 to 10 scale
In short: as §1

cheatgrass = assay type: in vivo, Bromus secalinus; settings: for Plant response rating, Cheatgrass: 0 to 10 scale
In short: as §1

chickweed = assay type: in vivo, Stellaria media; settings: for Plant response rating, Chickweed: 0 to 10 scale
In short: as §1

crabgrass = assay type: in vivo, Digitaria spp.; settings: for Plant response rating, Crabgrass: 0 to 10 scale
In short: as §1

velvetleaf = assay type: in vivo, Abutilon theophrasti; settings: for Plant response rating, Velvetleaf: 0 to 10 scale
In short: as §1

cocklebur = assay type: in vivo, Xanthium pensylvanicum; settings: for Plant response rating, Cocklebur: 0 to 10 scale
In short: as §1

wild buckwheat = assay type: in vivo, Polygonum convolvulus; settings: for Plant response rating, Wild buckwheat: 0 to 10 scale
In short: as §1

sugar beet = assay type: in vivo, Beta vulgaris; settings: for Plant response rating, Sugar beet: 0 to 10 scale
In short: as §1

lambsquarters = assay type: in vivo, Chenopodium album; settings: for Plant response rating, Lambsquarter: 0 to 10 scale
In short: as §1

barnyardgrass = assay type: in vivo, Echinochloa crus-galli; settings: for Plant response rating, Barnyardgrass: 0 to 10 scale
In short: as §1

barley = assay type: in vivo, Hordeum vulgare; settings: for Plant response rating, Barley: 0 to 10 scale
In short: as §1

soybean = assay type: in vivo, Glycine max; settings: for Plant response rating, Soybean: 0 to 10 scale
In short: as §1

purple nutsedge = assay type: in vivo, Cyperus rotundus; settings: for Plant response rating, Nutsedge: 0 to 10 scale
In short: as §1

giant foxtail = assay type: in vivo, Setaria faberii; settings: for Plant response rating, Giant foxtail: 0 to 10 scale
In short: as §1

blackgrass = assay type: in vivo, Alopecurus myosuroides; settings: for Plant response rating, Blackgrass: 0 to 10 scale
In short: as §1

sorghum = assay type: in vivo, Sorghum bicolor; settings: for Plant response rating, Sorghum: 0 to 10 scale
In short: as §1

rape = assay type: in vivo, Brassica napus; settings: for Plant response rating, Rape: 0 to 10 scale
In short: as §1

morningglory = assay type: in vivo, Ipomoea hederacea; settings: for Plant response rating, Morningglory: 0 to 10 scale
In short: as §1

wheat = assay type: in vivo, Triticum aestivum; settings: for Plant response rating, Wheat: 0 to 10 scale
In short: as §1

corn = assay type: in vivo, Zea mays; settings: for Plant response rating, Corn: 0 to 10 scale
In short: as §1

rice = assay type: in vivo, Oryza sativa; settings: for Plant response rating, Rice: 0 to 10 scale
In short: as §1

wild oat = assay type: in vivo, Avena fatua; settings: for Plant response rating, Wild oat: 0 to 10 scale
In short: as §1

Structure (SMILES): COCOc1cc(-c2nn3c(c2Br)CCCC3)c(F)cc1Cl [Compound 65]
- Plant response rating, Bedstraw (bedstraw; POSTEMERGENCE, Rate 50 g/ha): 10
- Plant response rating, Bedstraw (bedstraw; PREEMERGENCE, Rate 50 g/ha): 5
- Plant response rating (0 to 10 scale), Bedstraw (bedstraw; PREEMERGENCE, Rate 200 g/ha): 5
- Plant response rating, Bedstraw (bedstraw; Rate 200 g/ha, POSTEMERGENCE): 10
- Plant response rating, Cotton (cotton; POSTEMERGENCE, Rate 50 g/ha): 10
- Plant response rating, Cotton (cotton; PREEMERGENCE, Rate 50 g/ha): 0
- Plant response rating (0 to 10 scale), Cotton (cotton; PREEMERGENCE, Rate 200 g/ha): 4
- Plant response rating, Cotton (cotton; Rate 200 g/ha, POSTEMERGENCE): 10
- Plant response rating, Cheatgrass (cheatgrass; POSTEMERGENCE, Rate 50 g/ha): 3
- Plant response rating, Cheatgrass (cheatgrass; PREEMERGENCE, Rate 50 g/ha): 2
- Plant response rating (0 to 10 scale), Cheatgrass (cheatgrass; PREEMERGENCE, Rate 200 g/ha): 4
- Plant response rating, Cheatgrass (cheatgrass; Rate 200 g/ha, POSTEMERGENCE): 6
- Plant response rating, Chickweed (chickweed; POSTEMERGENCE, Rate 50 g/ha): 5
- Plant response rating, Chickweed (chickweed; PREEMERGENCE, Rate 50 g/ha): 1
- Plant response rating (0 to 10 scale), Chickweed (chickweed; PREEMERGENCE, Rate 200 g/ha): 3
- Plant response rating, Chickweed (chickweed; Rate 200 g/ha, POSTEMERGENCE): 9
- Plant response rating, Crabgrass (crabgrass; POSTEMERGENCE, Rate 50 g/ha): 4
- Plant response rating, Crabgrass (crabgrass; PREEMERGENCE, Rate 50 g/ha): 2
- Plant response rating (0 to 10 scale), Crabgrass (crabgrass; PREEMERGENCE, Rate 200 g/ha): 2
- Plant response rating, Crabgrass (crabgrass; Rate 200 g/ha, POSTEMERGENCE): 7
- Plant response rating, Velvetleaf (velvetleaf; POSTEMERGENCE, Rate 50 g/ha): 10
- Plant response rating, Velvetleaf (velvetleaf; PREEMERGENCE, Rate 50 g/ha): 9
- Plant response rating (0 to 10 scale), Velvetleaf (velvetleaf; PREEMERGENCE, Rate 200 g/ha): 9
- Plant response rating, Velvetleaf (velvetleaf; Rate 200 g/ha, POSTEMERGENCE): 10
- Plant response rating, Cocklebur (cocklebur; POSTEMERGENCE, Rate 50 g/ha): 10
- Plant response rating, Cocklebur (cocklebur; PREEMERGENCE, Rate 50 g/ha): 0
- Plant response rating (0 to 10 scale), Cocklebur (cocklebur; PREEMERGENCE, Rate 200 g/ha): 4
- Plant response rating, Cocklebur (cocklebur; Rate 200 g/ha, POSTEMERGENCE): 10
- Plant response rating, Wild buckwheat (wild buckwheat; POSTEMERGENCE, Rate 50 g/ha): 10
- Plant response rating, Wild buckwheat (wild buckwheat; PREEMERGENCE, Rate 50 g/ha): 10
- Plant response rating (0 to 10 scale), Wild buckwheat (wild buckwheat; PREEMERGENCE, Rate 200 g/ha): 10
- Plant response rating, Wild buckwheat (wild buckwheat; Rate 200 g/ha, POSTEMERGENCE): 10
- Plant response rating, Sugar beet (sugar beet; POSTEMERGENCE, Rate 50 g/ha): 10
- Plant response rating, Sugar beet (sugar beet; PREEMERGENCE, Rate 50 g/ha): 9
- Plant response rating (0 to 10 scale), Sugar beet (sugar beet; PREEMERGENCE, Rate 200 g/ha): 10
- Plant response rating, Sugar beet (sugar beet; Rate 200 g/ha, POSTEMERGENCE): 10
- Plant response rating, Lambsquarter (lambsquarters; POSTEMERGENCE, Rate 50 g/ha): 10
- Plant response rating, Lambsquarter (lambsquarters; PREEMERGENCE, Rate 50 g/ha): 10
- Plant response rating (0 to 10 scale), Lambsquarter (lambsquarters; PREEMERGENCE, Rate 200 g/ha): 10
- Plant response rating, Lambsquarter (lambsquarters; Rate 200 g/ha, POSTEMERGENCE): 10
- Plant response rating, Barnyardgrass (barnyardgrass; POSTEMERGENCE, Rate 50 g/ha): 7
- Plant response rating, Barnyardgrass (barnyardgrass; PREEMERGENCE, Rate 50 g/ha): 4
- Plant response rating (0 to 10 scale), Barnyardgrass (barnyardgrass; PREEMERGENCE, Rate 200 g/ha): 9
- Plant response rating, Barnyardgrass (barnyardgrass; Rate 200 g/ha, POSTEMERGENCE): 9
- Plant response rating, Barley (barley; POSTEMERGENCE, Rate 50 g/ha): 3
- Plant response rating, Barley (barley; PREEMERGENCE, Rate 50 g/ha): 0
- Plant response rating (0 to 10 scale), Barley (barley; PREEMERGENCE, Rate 200 g/ha): 2
- Plant response rating, Barley (barley; Rate 200 g/ha, POSTEMERGENCE): 6
- Plant response rating, Soybean (soybean; PREEMERGENCE, Rate 50 g/ha): 0
- Plant response rating (0 to 10 scale), Soybean (soybean; PREEMERGENCE, Rate 200 g/ha): 2
- Plant response rating, Soybean (soybean; Rate 200 g/ha, POSTEMERGENCE): 8
- Plant response rating, Nutsedge (purple nutsedge; POSTEMERGENCE, Rate 50 g/ha): 3
- Plant response rating, Nutsedge (purple nutsedge; PREEMERGENCE, Rate 50 g/ha): 0
- Plant response rating (0 to 10 scale), Nutsedge (purple nutsedge; PREEMERGENCE, Rate 200 g/ha): 0
- Plant response rating, Nutsedge (purple nutsedge; Rate 200 g/ha, POSTEMERGENCE): 4
- Plant response rating, Giant foxtail (giant foxtail; POSTEMERGENCE, Rate 50 g/ha): 5
- Plant response rating, Giant foxtail (giant foxtail; PREEMERGENCE, Rate 50 g/ha): 6
- Plant response rating (0 to 10 scale), Giant foxtail (giant foxtail; PREEMERGENCE, Rate 200 g/ha): 10
- Plant response rating, Giant foxtail (giant foxtail; Rate 200 g/ha, POSTEMERGENCE): 8
- Plant response rating, Blackgrass (blackgrass; POSTEMERGENCE, Rate 50 g/ha): 7
- Plant response rating, Blackgrass (blackgrass; PREEMERGENCE, Rate 50 g/ha): 7
- Plant response rating (0 to 10 scale), Blackgrass (blackgrass; PREEMERGENCE, Rate 200 g/ha): 7
- Plant response rating, Blackgrass (blackgrass; Rate 200 g/ha, POSTEMERGENCE): 7
- Plant response rating, Sorghum (sorghum; POSTEMERGENCE, Rate 50 g/ha): 6
- Plant response rating, Sorghum (sorghum; PREEMERGENCE, Rate 50 g/ha): 0
- Plant response rating (0 to 10 scale), Sorghum (sorghum; PREEMERGENCE, Rate 200 g/ha): 0
- Plant response rating, Sorghum (sorghum; Rate 200 g/ha, POSTEMERGENCE): 7
- Plant response rating, Rape (rape; POSTEMERGENCE, Rate 50 g/ha): 8
- Plant response rating, Rape (rape; PREEMERGENCE, Rate 50 g/ha): 0
- Plant response rating (0 to 10 scale), Rape (rape; PREEMERGENCE, Rate 200 g/ha): 10
- Plant response rating, Rape (rape; Rate 200 g/ha, POSTEMERGENCE): 9
- Plant response rating, Morningglory (morningglory; POSTEMERGENCE, Rate 50 g/ha): 10
- Plant response rating, Morningglory (morningglory; PREEMERGENCE, Rate 50 g/ha): 0
- Plant response rating (0 to 10 scale), Morningglory (morningglory; PREEMERGENCE, Rate 200 g/ha): 2
- Plant response rating, Morningglory (morningglory; Rate 200 g/ha, POSTEMERGENCE): 10
- Plant response rating, Wheat (wheat; POSTEMERGENCE, Rate 50 g/ha): 6
- Plant response rating, Wheat (wheat; PREEMERGENCE, Rate 50 g/ha): 0
- Plant response rating (0 to 10 scale), Wheat (wheat; PREEMERGENCE, Rate 200 g/ha): 5
- Plant response rating, Wheat (wheat; Rate 200 g/ha, POSTEMERGENCE): 5
- Plant response rating, Corn (corn; POSTEMERGENCE, Rate 50 g/ha): 4
- Plant response rating, Corn (corn; PREEMERGENCE, Rate 50 g/ha): 0
- Plant response rating (0 to 10 scale), Corn (corn; PREEMERGENCE, Rate 200 g/ha): 4
- Plant response rating, Corn (corn; Rate 200 g/ha, POSTEMERGENCE): 5
- Plant response rating, Rice (rice; POSTEMERGENCE, Rate 50 g/ha): 5
- Plant response rating, Rice (rice; PREEMERGENCE, Rate 50 g/ha): 1
- Plant response rating (0 to 10 scale), Rice (rice; PREEMERGENCE, Rate 200 g/ha): 3
- Plant response rating, Rice (rice; Rate 200 g/ha, POSTEMERGENCE): 6
- Plant response rating, Wild oat (wild oat; POSTEMERGENCE, Rate 50 g/ha): 7
- Plant response rating, Wild oat (wild oat; PREEMERGENCE, Rate 50 g/ha): 2
- Plant response rating (0 to 10 scale), Wild oat (wild oat; PREEMERGENCE, Rate 200 g/ha): 8
- Plant response rating, Wild oat (wild oat; Rate 200 g/ha, POSTEMERGENCE): 7
